Laboratory results as given in ChEMBL document CHEMBL1127361, “Polyacrylamides bearing pendant alpha-sialoside groups strongly inhibit agglutination of erythrocytes by influenza A virus: multivalency and steric stabilization of particulate biological systems” (J Med Chem, 1994).
Numbered stars: 1 amine (or outer) side, 2 acyl side, 3 side chain; on linkers, the order of the positions; unused ones are H or OH. Square brackets hold non-standard residues; d marks the D form. Peptide text beside a SMILES is read from it. * marks the point of attachment. X1 = O=C(O)C1(OCCCCC(=O)[*:2])CC(O)C(N[*:1])C([C@@H](O)[C@H](O)CO)O1; NH(1-naphthylmethyl) = c1ccc2c(CN*)cccc2c1

Test: Tested for inhibition of hemagglutinination in chicken red blood cell (RBC)
Type: functional, Gallus gallus

SMILES	Ki [µM]
COC(=O)C1(OC)CC(O)C(NC(C)=O)C([C@@H](O)[C@H](O)CO)O1 (some centres undefined)	14000
C=CC(=O)NOCCCOCCCCOC1(C(C)=O)CC(O)C(NC(C)=O)C([C@@H](O)[C@H](O)CO)O1 (some centres undefined)	> 600
COC1(C(=O)O)CC(O)C(NC(C)=O)C([C@@H](O)C(O)O)O1 (some centres undefined)	2500
CC(=O)NC1C(OC(=O)CNS(=O)(=O)c2cccc3c(N(C)C)cccc23)CC(OCCCCCCC(=O)NCc2cccc3ccccc23)(C(=O)O)OC1[C@@H](O)[C@H](O)CO (some centres undefined)	3
C=CC(=O)NOCCCOCCCCOC1(C(N)=O)CC(O)C(NC(C)=O)C([C@@H](O)[C@H](O)CO)O1 (some centres undefined)	> 600
C=CC(=O)NOCCCOCCCCOC1(C(=O)O)CC(O)C(NC(C)=O)C([C@@H](O)[C@H](O)CO)O1 (some centres undefined)	0.3
C=CC(=O)NCCCOCCCCOC1(C(=O)O)CC(O)C(NC(C)=O)C([C@@H](O)[C@H](O)CO)O1 (some centres undefined)	1000
CC(=O)NC1C(O)CC(OCCCCC(=O)NCC(=O)NCC(=O)NCC(=O)NCC(=O)NCc2cccc3ccccc23)(C(=O)O)OC1[C@@H](O)[C@H](O)CO (some centres undefined) (Ac-[X1]GGGG-{NH(1-naphthylmethyl)})	30
COC1(C(=O)O)CC(O)C(NC(C)=O)C([C@@H](O)[C@H](O)CO)O1 (some centres undefined)	2500
